Reference: ChEMBL document CHEMBL1151662, “Insect Antifeedant Activity of Four Prieurianin-Type Limonoids” (1985)

Legend:
Assay type in all cases: functional
Heliothis virescens [1] = test: Insecticidal activity against tobacco budworm third instar larvae at 19.8 ug/cm2 applied on upper surface of circular leaf disk after 2 days
Heliothis virescens [2] = test: Insecticidal activity against tobacco budworm third instar larvae at 19.8 ug/cm2 applied on upper surface of circular leaf disk after 6 days
Heliothis virescens [3] = test: Insecticidal activity against tobacco budworm third instar larvae at 6 ug/cm2 applied on upper surface of circular leaf disk after 2 days
Heliothis virescens [4] = test: Insecticidal activity against tobacco budworm third instar larvae at 6 ug/cm2 applied on upper surface of circular leaf disk after 6 days
Heliothis virescens [5] = test: Insecticidal activity against tobacco budworm third instar larvae at 1.5 ug/cm2 applied on upper surface of circular leaf disk after 2 days
Heliothis virescens [6] = test: Insecticidal activity against tobacco budworm third instar larvae at 1.5 ug/cm2 applied on upper surface of circular leaf disk after 6 days
Spodoptera eridania [7] = test: Insecticidal activity against southern armyworm third instar larvae at 19.8 ug/cm2 applied on upper surface of circular leaf disk after 2 days
Spodoptera eridania [8] = test: Insecticidal activity against southern armyworm third instar larvae at 19.8 ug/cm2 applied on upper surface of circular leaf disk after 6 day
Spodoptera eridania [9] = test: Insecticidal activity against southern armyworm third instar larvae at 6 ug/cm2 applied on upper surface of circular leaf disk after 2 days
Spodoptera eridania [10] = test: Insecticidal activity against southern armyworm third instar larvae at 6 ug/cm2 applied on upper surface of circular leaf disk after 6 days
Spodoptera eridania [11] = test: Insecticidal activity against southern armyworm third instar larvae at 1.5 ug/cm2 applied on upper surface of circular leaf disk after 2 days
Spodoptera eridania [12] = test: Insecticidal activity against southern armyworm third instar larvae at 1.5 ug/cm2 applied on upper surface of circular leaf disk after 6 days
Epilachna varivestis [13] = test: Insecticidal activity against mexican bean beetle third instar larvae at 19.8 ug/cm2 applied on upper surface of circular leaf disk after 2 days
Epilachna varivestis [14] = test: Insecticidal activity against mexican bean beetle third instar larvae at 19.8 ug/cm2 applied on upper surface of circular leaf disk after 6 days
Epilachna varivestis [15] = test: Insecticidal activity against mexican bean beetle third instar larvae at 6 ug/cm2 applied on upper surface of circular leaf disk after 2 days
Epilachna varivestis [16] = test: Insecticidal activity against mexican bean beetle third instar larvae at 6 ug/cm2 applied on upper surface of circular leaf disk after 6 days
Epilachna varivestis [17] = test: Insecticidal activity against mexican bean beetle third instar larvae at 1.5 ug/cm2 applied on upper surface of circular leaf disk after 2 days
Epilachna varivestis [18] = test: Insecticidal activity against mexican bean beetle third instar larvae at 1.5 ug/cm2 applied on upper surface of circular leaf disk after 6 days

| SMILES | Activity (Heliothis virescens [1]) | Activity (Heliothis virescens [2]) | Activity (Heliothis virescens [3]) | Activity (Heliothis virescens [4]) | Activity (Heliothis virescens [5]) | Activity (Heliothis virescens [6]) | Activity (Spodoptera eridania [7]) | Activity (Spodoptera eridania [8]) | Activity (Spodoptera eridania [9]) | Activity (Spodoptera eridania [10]) | Activity (Spodoptera eridania [11]) | Activity (Spodoptera eridania [12]) | Activity (Epilachna varivestis [13]) | Activity (Epilachna varivestis [14]) | Activity (Epilachna varivestis [15]) | Activity (Epilachna varivestis [16]) | Activity (Epilachna varivestis [17]) | Activity (Epilachna varivestis [18]) |
| --- | --- | --- | --- | --- | --- | --- | --- | --- | --- | --- | --- | --- | --- | --- | --- | --- | --- | --- |
| C/C=C(\C)C(=O)O[C@H]1C[C@@H](OC(C)=O)[C@@]2(C(=O)OC)CO[C@H]3[C@@H](O)[C@@](C)([C@]45O[C@@]4(C)[C@@H]4C[C@H]5O[C@@H]5OC=C[C@@]54O)[C@H]4[C@]1(CO[C@]4(O)C(=O)OC)[C@@H]32 [AZADIRACHTIN A] | 60% | 60% | 60% | 60% | 60% | 60% | 90% | 90% | 60% | 60% | 60% | 30% | 90% | 90% | 90% | 90% | 30% | 60% |
| C=C1[C@@H]([C@@]2(C)[C@@H](OC(C)=O)CC(=O)O[C@](C)(COC(C)=O)[C@@H]2C(=O)OC)[C@@H](OC=O)[C@H](OC(=O)[C@H](O)[C@H](C)CC)[C@@]2(C)[C@H](c3ccoc3)CC(=O)[C@]12O [PRIEURIANIN] | 60% | 60% | 30% | 60% | 30% | 0% | 30% | 0% | 0% | 0% | 0% | 0% | 60% | 60% | 30% | 30% | 0% | 0% |
| C=C1[C@@H]([C@@]2(C)C=CC(=O)O[C@]3(C)COC(=O)C[C@H]23)[C@@H](OC=O)[C@H](OC(=O)C(O)C(C)CC)[C@@]2(C)[C@@H](c3ccoc3)C[C@H](OC(C)=O)[C@]12O (some centres not stated) [ROHITIUKA 7] | 60% | 60% | 0% | 0% | 0% | 0% | 0% | 0% | 0% | 0% | 0% | 0% | 0% | 0% | 0% | 0% | 0% | 0% |
| C=C1[C@H]([C@@]2(C)[C@@H](OC(C)=O)CC(=O)O[C@]3(C)COC(=O)C[C@H]23)[C@@H](OC=O)[C@H](OC(=O)CC(C)C)[C@@]2(C)[C@@H](c3ccoc3)CC(=O)[C@@]12O [ROHITIUKIN] | 0% | 30% | 0% | 0% | 0% | 0% | 0% | 0% | 0% | 0% | 0% | 0% | 0% | 0% | 0% | 0% | 0% | 0% |
